≈ marks a conversion by molar mass, not a printed value.

A short description of data set [1]: Measurement of microsomal stability. The data set is classed as in vitro ADME. The note with it: pooled human liver microsomes 1.0 mg/ml, test compound 5 µM, pH 7.4, incubation up to 60 min. On the procedure:
Metabolic stability measurements in vitro using liver microsomes aids in the prediction of in vivo hepatic clearance and compound stability towards phase I biotransformation reactions mediated by P450 isozymes.
Pooled human liver microsome (HLM) preparation was purchased from BD Gentest (BD BioSciences). The incubations consisted of test compound (5 µM) or control compound (Verapamil), NADPH-generating system solution A (25 mM NADP^+, 66 mM glucose-6-phosphate, 66 mM MgCl2 in H2O), NADPH-generating system solution B (40 U/ml glucose-6-phosphate dehydrogenase in 5 mM sodium citrate) and 1.0 mg/ml microsomal protein, respectively, in 100 mM potassium phosphate buffer (pH 7.4). Samples are incubated for 0, 5, 15, 30, 45, 60min. Reaction is terminated with ice-cold 80% acetonitrile and 20% DMSO. Samples are subsequently centrifuged at 4°C for 15 min at 2,000 rpm. 100 µL of the supernatant is transferred to the LC-MS plate for analysis. Before quantitative analysis, the compound is tuned in the LC/MS machine to get the optimized MS condition. Liquid chromatography is performed on a Luna C18 column (Phenomenex U.S.A, Torrance, CA) (2x50mm, […]). Percentage (%) remaining of compound (by area) of each time point is calculated with respect to time 0. Plot %remaining against time (min) to obtain the curve and use the Prism software to obtain the T1/2. […]
In general terms: Liver microsomes are vesicles of endoplasmic reticulum, rich in cytochrome P450 enzymes.

In another data set the target is T1, HDAC1 enzyme (Homo sapiens, UniProt Q13547).
T1 construct: Amplification of human HDAC1 coding region from this cDNA library was cloned separately into the baculovirus expression pDEST20 vector; made in house; host or cells: SF9 insect cells (baculovirus, pDEST20 vector)
As to the kind of experiment: In vitro HDAC assay for determination of IC50 values (BIOMOL fluorescent-based HDAC activity assay). It is filed as biochemical. The following applies: recombinant GST-HDAC1, 500 uM Flur de lys substrate, room temperature 2 h; read-out: IC50 (HDAC 1).

The nature of data set [2]: High Throughput Solubility Profiling (HTSP), kinetic solubility. The data set is classed as physicochemical. The note with it: phosphate buffer with 2.5% DMSO, aqueous buffer, kinetic from dmso stock, phosphate buffer (pH 7), final concentration 250 µM. On the procedure: Determining compound aqueous solubility has become an essential early measurement in the drug discovery process. Poor aqueous solubility can cause problems in many in vitro testing techniques, leading to unreliable results. The standard way to determine the solubility of a compound is to use the shake-flask solubility method. However, this method is inherently low-throughput and labour intensive.
10mM compound stock in DMSO was dissolved in phosphate buffer (pH 7) to give a final concentration of 250µM in 96-well plates in triplicate. The plate was shaken for 1.5 hours at 450 rpm and left to stand for 2 hours to allow the compound to reach its saturation point. The plate was then centrifuged at 2000g for 15 minutes. The supernatant was transferred and mixed with 20µL of DMSO in another 96-well plate. A calibration curve at 100µM and 250µM was prepared from the 10mM stock by dissolving in 60% methanol/phosphate buffer solution. LC/MS was used in the analysis and the area counts were obtained by using the Quantify Method Editor. Using the three point standard curve including zero, the results for solubility were reported. […]

Another data set deals with Colo205 cells. Kind of data set: Cell-based proliferation assay for determination of GI50 values (CyQUANT). Details: species or system Human. The note with it: Homo sapiens, COLO 205, compound treatment 96 h, concentration for 50% inhibition of cell growth, read-out: Gl50 (Colo205).

T1 sequence (Q13547 whole entry): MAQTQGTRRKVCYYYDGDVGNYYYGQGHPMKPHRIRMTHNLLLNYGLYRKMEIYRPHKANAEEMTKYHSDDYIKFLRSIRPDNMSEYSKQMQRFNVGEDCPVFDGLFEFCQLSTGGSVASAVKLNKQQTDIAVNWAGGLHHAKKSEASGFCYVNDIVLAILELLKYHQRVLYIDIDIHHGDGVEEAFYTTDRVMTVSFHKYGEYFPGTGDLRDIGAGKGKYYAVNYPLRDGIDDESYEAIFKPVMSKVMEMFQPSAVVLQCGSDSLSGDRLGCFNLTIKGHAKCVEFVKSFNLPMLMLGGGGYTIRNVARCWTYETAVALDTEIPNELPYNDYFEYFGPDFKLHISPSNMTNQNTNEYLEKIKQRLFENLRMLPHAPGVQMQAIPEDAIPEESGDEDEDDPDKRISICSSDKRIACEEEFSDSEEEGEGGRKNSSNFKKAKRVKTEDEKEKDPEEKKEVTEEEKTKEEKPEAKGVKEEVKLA

Compound `CCCCc1nc2cc(C=CC(=O)NO)ccn2c1CNC(C)(C)C` [Compound 5, 3-[2-Butyl-3-(tert-butylamino-methyl)-imidazo[1,2-a]pyridin-7-yl]-N-hydroxy-acrylamide] came in with a half-life at 5 µM in data set [1] of more than 1 h. In addition, the values for the IC50 on HDAC1 enzyme and with Colo205 cells were 20 nM and 140 nM, respectively. In data set [2], the solubility was 200 µM (≈ 68.9 µg/mL).

The half-life is how long it takes for the measured level to halve. By solubility is commonly meant how much of the substance goes into solution per volume.

(Values after patent EP2064211B1, “IMIDAZO[1,2-A]PYRIDINE HYDROXYMATE COMPOUNDS THAT ARE INHIBITORS OF HISTONE DEACETYLASE” (MEI Pharma, Inc., priority 2006, dated 2008).)
